This is an account of results in US20080312435A1, “Imine Compound” (TAISHO PHARMACEUTICAL CO., LTD., priority 2004, published 2008).

pEC50, pIC50: −log10 of the molar value.

The target in data set [1] is T1, human CB1 receptor (Homo sapiens, UniProt P21554).
T1 construct: expressed in transfected cells
Kind of data set: Test for GTPγS binding via human CB1 receptor. Type of data set: biochemical. As to conditions: human CB1 receptor CHO membrane fractions; maximum activity of each compound regarded as 100%; read-out: EC50 value (effective concentration exhibiting 50% activity), [35S]GTPγS binding. The method, then: Test for GTPγS Binding Via Human CB1 Receptor
CHO cells capable of stably expressing the human CB1 receptor were prepared in the same manner as in Experimental Example 2. The membrane fractions thereof were incubated together with a test compound in an assay buffer [50 mM Tris-HCl (pH 7.4), 2.5 mM EDTA, 5 mM MgCl2, 3 μM GDP (manufactured by SIGMA), 30 μg/ml Saponin (manufactured by SIGMA)] containing 0.2% bovine serum albumin at 30° C. for 30 minutes. Thereafter, 0.1 nM [^35S]GTPγS (manufactured by Perkin Elmer) was added to the buffer, incubation was performed at 30° C. for 30 minutes. The resultant solution was filtrated by a glass filter GF/C and washed. Thereafter, radioactivity on the glass filter was measured by a liquid scintillation counter. The nonspecific binding was measured […].

The target of data set [2] is T2, human CB2 receptor (Homo sapiens, UniProt P34972).
T2 construct: expressed in transfected cells
T2 sequence (P34972 whole entry): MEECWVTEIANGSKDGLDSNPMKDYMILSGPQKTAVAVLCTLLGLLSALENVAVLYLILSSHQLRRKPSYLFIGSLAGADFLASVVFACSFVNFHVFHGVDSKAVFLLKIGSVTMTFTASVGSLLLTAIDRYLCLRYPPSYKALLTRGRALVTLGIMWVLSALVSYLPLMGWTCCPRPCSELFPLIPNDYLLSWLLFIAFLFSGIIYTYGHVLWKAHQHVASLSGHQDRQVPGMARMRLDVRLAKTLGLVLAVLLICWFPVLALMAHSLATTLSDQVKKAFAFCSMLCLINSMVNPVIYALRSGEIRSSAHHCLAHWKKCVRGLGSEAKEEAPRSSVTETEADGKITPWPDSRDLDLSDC
In words: Human CB2 receptor binding inhibition test ([3H]CP-55,940, CHO membrane fractions). The conditions noted are these: [3H]CP-55,940, membrane fractions of CHO cells stably expressing human CB2 receptor, 25° C., 2 hours; read-out: CB2 IC50 (Inhibition of binding to human CB2 receptor). The method, boiled down: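 Membranes from CHO-DHFR(−) cells stably expressing human CB2 used for [3H]CP-55,940 binding; filter-bound radioactivity counted by scintillation after washes with 0.1% BSA buffer. Nonspecific binding defined with 2.0 μM CP-55,940; IC50 for inhibition of specific binding.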

In data set [3] the target is T1, human CB1 receptor. Kind of data set: Human CB1 receptor binding inhibition test. The conditions noted are these: CHO-DHFR(−) cells stably expressing human CB1 receptor, same manner as Experimental Example 1. On the procedure: Human CB1 Receptor Binding Inhibition Test
The CHO-DHFR(−) cells capable of stably expressing a CB1 receptor were prepared in the same manner as in Experimental Example 1. The binding test to the human CB1 receptor was performed to obtain 50% inhibitory concentration (IC50 value) of a test compound.

Data set [4] deals with SD:IGS-series male rats. Kind of data set: Neuropathic pain test in rat (partial sciatic nerve clipping, von Frey filament). In kind it is in vivo. The conditions noted are these: oral administration 3, 10 and 30 mg/kg, one hour after administration, FIG. 1. The method, then:
Neuropathic Pain Test in Rat
Using SD:IGS-series male rats (5 weeks old), neuropathic pain model were prepared by partially clipping the sciatic nerve of the femoral region in accordance with the method of Seltzer et al. (SeltzerZ; Pain. 43(2):205-218 (1990)). When the plantar surface of the paw on the affected side was stimulated by touching with a von Frey filament(s) (nylon fiber for use in a touch test: North Coast Medical, Inc.), the pain threshold (load (g) applied to the filament when an animal responds to touch stimulation) was measured. The test compound was suspended in a 5% gum Arabic solution and administered in a dose of 0 mg/kg, 3 mg/kg, 10 mg/kg and 30 mg/kg. One hour after the administration, pain threshold (g) was measured.

Data set [5] concerns Balb/c male mice. In words: Test for edema on ear in mouse (PMA-induced). In kind it is in vivo. As to conditions: 1 mg per murine ear, PMA 0.8 μg, measured five hours later. The method, then: Test for Edema on Ear in Mouse
Using Balb/c male mice (5 weeks old), a test compound dissolved in acetone was applied in an amount of 20 μL to the inside the ear. Ten minutes after the application of the test compound, an acetone solution (20 μL) containing 0.8 μg of PMA (phorbol 12-myristate 13-acetate) was applied. Five hours later, the thickness (hyperplasia) of the ear was measured by a dial sickness gauge. Acetone alone was applied to the control group. The inhibition rate (%) of edema on the ear was calculated based on the following equation.

Data set [6] has as its target T2, human CB2 receptor. In words: Test for GTPγS binding via human CB2 receptor. In kind it is biochemical. The conditions noted are these: human CB2 receptor CHO membrane fractions; read-out: EC50 value (effective concentration exhibiting 50% activity), GTPγS binding. The method, then:
Test for GTPγS Binding Via Human CB2 Receptor
The CHO cells capable of stably expressing the human CB2 receptor were prepared in the same manner as in Experimental Example 1.
For orientation: Binding of GTPγS marks nucleotide exchange on a G protein.

Data set [7] deals with Jcl: ICR-series male mice. Kind of data set: Writhing test with acetic acid in mouse. As to conditions: orally administered 30 mg/kg, acetic acid i.p. one hour after administration. Type of data set: in vivo. On the procedure:
Writhing Test with Acetic Acid in Mouse
This test was performed in accordance with the method of Futaki N et al. (Gen Pharmacol. 24(1):105-110 (1993). A test compound suspended in a 5% gum Arabic solution was orally administered to Jcl: ICR-series male mice (5 weeks old). One hour after the administration of the test compound, a 0.9% aqueous acetic acid solution was intraperitoneally administered. Five minutes after the administration, the number of abdomen stretch movements (pain-related behavior) were counted for 10 minutes. Only the 5% gum Arabic solution was orally administered to the control group. A pain-related behavior inhibition rate (%) was obtained based on the following equation.
(In general: In writhing tests, fewer writhes than in controls are read as antinociception.)

T1 sequence (P21554 whole entry): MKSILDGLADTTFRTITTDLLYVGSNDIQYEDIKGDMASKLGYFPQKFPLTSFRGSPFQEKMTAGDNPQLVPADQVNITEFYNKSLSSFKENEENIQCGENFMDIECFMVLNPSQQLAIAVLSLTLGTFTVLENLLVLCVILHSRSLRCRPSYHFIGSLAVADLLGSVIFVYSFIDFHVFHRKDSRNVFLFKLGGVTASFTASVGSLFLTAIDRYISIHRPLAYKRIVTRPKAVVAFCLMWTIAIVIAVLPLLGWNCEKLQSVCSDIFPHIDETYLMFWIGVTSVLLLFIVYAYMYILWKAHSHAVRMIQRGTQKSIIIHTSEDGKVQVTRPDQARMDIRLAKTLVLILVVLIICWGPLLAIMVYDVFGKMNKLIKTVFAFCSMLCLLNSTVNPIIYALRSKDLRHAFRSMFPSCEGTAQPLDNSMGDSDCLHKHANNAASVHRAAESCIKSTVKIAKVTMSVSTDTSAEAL

`Cc1cccc(C(=O)/N=c2\sc(C(C)(C)C)c(C)n2CC2CC2)c1I` [compound 249]: the melting point is 149 to 151 °C. In data set [1], the pEC50 was 7.72. The pIC50 in data set [2] was 9.40. In addition, the pIC50 in data set [3] is 8.70.

`Cc1c(C(C)(C)C)s/c(=N\C(=O)c2cccc(C(F)(F)F)c2)n1CC1CC1` [compound 184]: in data set [2], the pIC50 is 7.92. Further, in data set [4], the pain threshold entry was “increased pain threshold in a dose depending manner”. Further, the “inhibition rate of edema on the ear” value in data set [5] is reported as 65%. For the same molecule, the pEC50 in data set [6] was 8.01.

`Cc1cccc(C(=O)/N=c2\sc(C(C)(C)C)c(C)n2CC2CC2)c1Br` [compound 247] displayed a melting point of 142 to 144 °C. Further, in data set [1], the pEC50 is 7.48. Also, the pIC50 in data set [2] is 9.52. Further, the “pain-related behavior inhibition rate” value in data set [7] is given as 93.0%. The molecule further had a negative-log IC50 (pIC50) in data set [3] of 8.52.

The pIC50 is −log10 of the IC50, conventionally taken in molar units. Usually melting point stands for the temperature, or range, at which the solid turns liquid.
